Data published in patent US20240408226A1, “ANTIBODY DRUG CONJUGATE INTERMEDIATE CONTAINING SN38 AND ITS PREPARATION METHOD” (priority 2021, published 2024).

Columns and labels:
[1] = Stability in PB (0.2 M) buffer at 37° C., quantified by LC-MS; format: physicochemical; details: for Remaining fraction T/T0: 37° C.
Method: The system was placed in a constant temperature system of 37° C. […] The system was placed in a constant temperature system of 37° C.; • 4) 40 μL of sample was respectively taken at 0 h, 2 h, 4 h, 6 h, 24 h, and 48 h, added with 120 μL of acetonitrile, and centrifuged. The supernatant was taken for quantitative determination by LC-MS. • 5) Results processing.
The concentration at T=0 h in LC-MS was used as the reference, and the data were calculated by T/T0*100%. The results are shown in Table 3 and Table 4, respectively.

[2] = test system: triple-negative breast cancer; details: clinical phase II; cited from earlier work
[3] = test system: small cell lung cancer; details: small cell lung cancer in which multiple treatments had failed; cited from earlier work
[4] = test system: non-small cell lung cancer; details: non-small cell lung cancer after failed chemotherapy, targeting therapy and PD-1 treatment; cited from earlier work

Row | Molecule | decomposed ([1]; alkaline conditions, at 24 h) [%] | decomposed ([1]; neutral conditions, at 6 h) [%] | decomposed ([1]; neutral conditions, at 24 h) [%] | Remaining fraction T/T0 ([1]; pH = 6, 0 h, 60 μg/mL) | Remaining fraction T/T0 ([1]; pH = 6, 2 h, 60 μg/mL) | Remaining fraction T/T0 ([1]; pH = 6, 4 h, 60 μg/mL) | Remaining fraction T/T0 ([1]; pH = 6, 6 h, 60 μg/mL) | Remaining fraction T/T0 ([1]; pH = 6, 24 h, 60 μg/mL) | Remaining fraction T/T0 ([1]; pH = 6, 48 h, 60 μg/mL) | Remaining fraction T/T0 ([1]; pH = 7, 0 h) | Remaining fraction T/T0 ([1]; pH = 7, 2 h) | Remaining fraction T/T0 ([1]; pH = 7, 4 h) | Remaining fraction T/T0 ([1]; pH = 7, 6 h) | Remaining fraction T/T0 ([1]; pH = 7, 24 h) | Remaining fraction T/T0 ([1]; pH = 7, 48 h) | Remaining fraction T/T0 ([1]; pH = 8, 0 h) | Remaining fraction T/T0 ([1]; pH = 8, 2 h) | Remaining fraction T/T0 ([1]; pH = 8, 4 h) | Remaining fraction T/T0 ([1]; pH = 8, 6 h) | Remaining fraction T/T0 ([1]; pH = 8, 24 h) | further results
1 | CCc1c2c(nc3ccc(OC(=O)N(CCOCCOC(=O)N(C)CCN(C)C)CCN(C)C(=O)OCc4ccc(NC(=O)[C@H](CCCNC(N)=O)NC(=O)[C@@H](NC(=O)CCCCCN5C(=O)C=CC5=O)C(C)C)cc4)cc13)-c1cc3c(c(=O)n1C2)COC(=O)[C@]3(O)CC [Compound of formula (1), maleimidohexanoic acid-L-valyl-L-citrulline-p-aminobenzyl-(N-methylethyldiethoxy-N,N,N-trimethylethylenediami ne)-camptothecin] | 97 | 18 | 75 | 1 | 0.9886 | 0.9761 | 0.9208 | 0.8682 | 0.7886 | 1 | 0.8789 | 0.8018 | 0.8219 | 0.2567 | 0.1222 | 1 | 0.5641 | 0.2841 | 0.1234 | 0.009607 | Remaining fraction T/T0 ([1]; pH = 8, 48 h): 0.01256; decomposed ([1]; pH of 6, after 48 h): 21.2%; decomposed ([1]; pH of 7, after 48 h): 87.8%; decomposed ([1]; pH of 8, after 48 h): 98.7%; Stability compared with CL2A-SN38 ([1]; weak acidic conditions): more stable than CL2A-SN38; Stability compared with CL2A-SN38 ([1]; weak acidic or neutral conditions): higher stability
2 | Sacituzumab govitecan | – | – | – | – | – | – | – | – | – | – | – | – | – | – | – | – | – | – | – | – | effective rate [2]: 30%; tumor shrinkage, share of patients [2]: 69.5%; tumor shrinkage, share of patients [3]: 60%; control rate [4]: up to 43%
3 | CCc1c2c(nc3ccc(O)cc13)-c1cc3c(c(=O)n1C2)COC(=O)[C@@]3(CC)OC(=O)OCc1ccc(NC(=O)[C@@H](CCCCN)NC(=O)COCC(=O)NCCOCCOCCOCCOCCOCCOCCOCCOCCn2cc(CNC(=O)C3CCC(CN4C(=O)C=CC4=O)CC3)nn2)cc1 (stereo partly drawn) [CL2A-SN38] | 98 | 43 | 98 | 1 | 0.7479 | 0.6471 | 0.413 | 0.03593 | 0.02024 | 1 | 0.7038 | 0.5851 | 0.5715 | 0.02261 | 0.01906 | 1 | 0.6287 | 0.4347 | 0.3844 | 0.02532 | Remaining fraction T/T0 ([1]; pH = 8, 48 h): 0.01928; decomposed ([1]; pH of 6, after 48 h): 98.0%; decomposed ([1]; pH of 7, after 48 h): 98.1%; decomposed ([1]; pH of 8, after 48 h): 98.1%
